Legend:
[1] = test system: human immunodeficiency virus (HIV) Type I, strain HTLV-IIIB; experiment: Virucidal efficacy assay: virus suspension exposed to test composition, then titered by infectivity (CPE) in MT-2 cells; type: cell-based, HIV Type 1
Procedure: Composition Tested: A 20 mL vial of ammonium chloride (100 mEq/5 mL) was dissolved into a 1 liter bag of 0.9% sodium chloride injection USP (9 g/L sodium chloride; osmolarity of 308 mOsmol/L; 154 mEq/L sodium; 154 mEq/L chloride). The contents of the bag were transferred to a sterile glass bottle. The solution was equilibrated to room temperature prior to use.
Virus: human immunodeficiency virus (HIV) Type I, strain HTLV-IIIB, was obtained from Advanced Biotechnologies, Inc., Columbia, Md. Stock virus was prepared by collecting the supernatant culture fluid from infected culture cells. The cells were disrupted and cell debris removed by centrifugation at approximately 2200 RPM for ten minutes at room temperature. The supernatant was removed, aliquoted, and the high titer stock virus was stored at ≦−70° C. until the day of use. On the day of use, an aliquot of stock virus was removed, thawed, and maintained at a refrigerated temperature until used in the assay. The stock virus culture was adjusted to contain 5% fetal bovine serum as the organic soil lead.
(§1) Test Cultures: MT-2 cells (human T-cell leukemia cells) were obtained through the AIDS Research and Reference Reagent Program, Division of AIDS, NIAID, NIH from Dr. Douglas Richman. Cultures were maintained and used in suspension in tissue culture labware at 36-38° C. in a humidified atmosphere of 5-7% CO2.
Test Medium: The test medium used for the assay was RPMI 1640 supplemented with 10% (v/v) heat-inactivated fetal bovine serum (FBS). The medium was also supplemented with 2.0 mM L-glutamine and 50 μg/mL gentamicin.
Treatment of Virus Suspension: A 1.80 mL aliquot of the test substance was dispensed into a sterile tube and mixed with a 0.2 mL aliquot of the stock virus suspension. The mixture was vortex mixed for 10 seconds and held for the remainder of the specified exposure time at 37.0° C. The exposure time was ten minutes. Following the exposure time, a 0.1 mL aliquot was removed from the tube and the mixture was immediately titered by 10-fold serial dilution (0.1 mL+0.9 mL test medium) and assayed for the presence of virus in MT-2 cells. To decrease the test substance cytotoxicity, the first dilution was made in FBS with the remaining dilutions in test medium.
Treatment of Virus Control: A 0.2 mL aliquot of stock virus suspension was exposed to a 1.80 mL aliquot of test medium, in lieu of test substance, and treated as previously described. Following the exposure time, a 0.1 mL aliquot was removed from the tube and the mixture was immediately titered by 10-fold serial dilution (0.1 mL+0.9 mL test medium) and assayed for the presence of virus in MT-2 cells. All controls employed the FBS neutralizer as described in the Treatment of Virus Suspension section above. The virus control titer was used as a baseline to compare the percent and log reductions of the test parameter following exposure to the test substance.
Cells in the multiwall culture dishes were inoculated in quadruplicate with 0.2 mL of the dilutions prepared from test and control groups. Uninfected indicator cell cultures (cell controls) were inoculated with test medium alone. The cultures were incubated at 36-38° C. in a humidified atmosphere of 5-7% CO2 in sterile disposable cell culture labware. The cultures were scored periodically for eight days for the absence or presence of CPE, cytotoxicity, and for viability.
(§2) Data analysis: Viral and cytotoxicity titers are expressed as −log 10 of the 50 percent titration endpoint for infectivity (TCID50) or cytotoxicity (TCD50), respectively, as calculated by the method of Spearman Karber: […]
Calculation of Percent (%) Reduction:
Calculation of Log Reduction:
TCID50 of the virus control—TCID50 of the test substance=Log reduction Study Acceptance Criteria: A valid test required the following: (1) that stock virus be recovered from the virus control; (2) that the cell controls be negative for virus; and (3) that negative cultures are viable.

[2] = test system: MT-2 cells (human T-cell leukemia cells); experiment: Cytotoxicity control of the virucidal assay; type: cell-based; conditions: ten minute exposure
Procedure: as §1
Cytotoxicity Control: A 1.80 mL aliquot of the test substance was mixed with a 0.2 mL aliquot of test medium containing the BSA organic soil load, in lieu of virus, and treated as previously described. The cytotoxicity control was held for the ten minute exposure time. […] The cytotoxicity of the MT-2 cell cultures was scored at the same time as virus-test substance and virus control cultures. Cytotoxicity was graded on the basis of cell viability as determined microscopically. […]
Cells in the multiwall culture dishes were inoculated in quadruplicate with 0.2 mL of the dilutions prepared from test and control groups. […] The cultures were scored periodically for eight days for the absence or presence of CPE, cytotoxicity, and for viability.
as §2

[3] = ten minute exposure at 37° C., 5% fetal bovine serum, compared to virus control

Compound: Cl.N [Ammonium Chloride, ammonium chloride]
- Presence of test virus, four cultures ([1]; dilution 10^-2, after ten minute exposure): + + + +
- Presence of test virus, four cultures ([1]; dilution 10^-3, after ten minute exposure): + + + +
- Presence of test virus, four cultures ([1]; dilution 10^-4, after ten minute exposure): + + + +
- Log10 Reduction in viral titer [1, 3]: 1.0 Log10
- Percent Reduction in viral titer [1, 3]: 90.0%
- Percent Reduction in viral titer ([1]; ten minute exposure at 37° C., 5% fetal bovine serum, compared to virus control, listed as ammonium chloride): 90%
- test virus infectivity detected in the virus-test substance mixture ([1]; ten minute exposure at 37° C., virus control titer 6.0 log 10): 5.0 log 10
- Test substance cytotoxicity (not observed at any dilution tested) [2]: ≤ 1.5 log 10
